Laboratory results reported in US20200155490A1, “IMMUNOMOUDULATORY AGENTS AND METHODS OF USE THEREOF” (priority 2016, published 2020).
Entries after “also recorded” stand apart in the source; their conditions may differ.

Columns and labels:
[1] = tested on: NLRP3 inflammasome in BMDM; experiment: NLRP3 inflammasome activation in BMDM (LPS priming + ATP, nigericin or MSU); type: cell-based, mouse; details: for production of IL-18: then ATP 3 mM 45 min; for protein expression of pro-IL-1β: 0.25 mM 12 h
Method: (§1) The concentration of cytokines in culture supernatants was determined using the following kits according to manufacturer's instructions. DuoSet® kits for mouse IL-1β/IL-1F2, TNF-α and IL-6 (all R&D systems); mouse IL-12 ELISA MAX™ Deluxe Set (BioLegend); mouse IL-18 ELISA kit (MBL). Nitric oxide was quantified using Griess Reagent System (Promega).
(§2) BMDM were stimulated as indicated, washed with PBS, lysed in RIPA Lysis Buffer System (Santa Cruz) and boiled in sample loading buffer containing SDS and 100 mM DTT. Proteins were separated by electrophoresis through 4-20% polyacrylamide gradient gels (BioRad). After electrophoretic transfer of proteins onto PVDF membranes, nonspecific binding was blocked by incubation with 5% skim milk and membranes were probed with primary antibodies anti-IL1β (1:1000 dilution; 12507S, CellSignaling), NIrp3 (1:500 dilution; NBP2-12446, Novus), HIF-1α (1:500 dilution; NB100-449, Novus), α-tubulin (1:2000 dilution; 2125S, CellSignaling), ASC (1:1000 dilution; sc-22514-R, Santa Cruz) followed by incubation with secondary antibodies (horseradish peroxidase-conjugated anti-rabbit, 1:10,000 dilution; sc-2030, Santa Cruz) and visualized with Clarity™ western ECL substrate (Biorad).

[2] = tested on: myocardial ischemia-reperfusion injury; experiment: Myocardial ischemia-reperfusion model; type: in vivo, mice; details: for myocardial infarct size: 30 min ischemia, 2 h reperfusion, intravenous infusion during ischemia
Method: In vivo ischemia-reperfusion modeling was performed as previously described. 8 to 10 week-old mice were anesthetized and subjected to an open chest procedure of reversible left anterior descending artery ligation for 30 min and subsequent reperfusion for 2 hours. Saline or DI (4 mg/Kg/min) was infused intravenously for 10 min before and throughout the ischemic period. A cardioplegic solution followed by TTC at 37° C. and then Evans Blue (after reocclusion of the LAD) was injected in a retrograde manner through the aorta in situ. The left ventricle was then sectioned into 5 slices and image analysis was performed with Image J (NIH).

[3] = tested on: bone marrow-derived macrophage (BMDM); experiment: RNA-seq transcriptional profiling of LPS-stimulated BMDM; details: for pro-inflammatory transcripts / inflammatory markers (Nos2, II6, II12b etc.): 0.25 mM 12 h pretreatment, LPS 100 ng/ml 4 h
[4] = tested on: mitochondrial ROS in BMDM; experiment: Measurement of mROS (MitoSOX) in BMDM; type: cell-based, mouse; details: 0.25 mM 12 h, LPS 100 ng/ml; MitoSOX flow cytometry
Method: Cells were incubated with DI (0.25 mM, 12 h) or vehicle and then loaded with 5 μM of the mitochondrial superoxide indicator MitoSOX (Invitrogen) at 37° C. for 30 min in HBSS supplemented with 0.1% BSA. Cells were then rinsed with warm culture medium and LPS treatment was started 1 h later. Cells were harvested and analyzed on a Canto II flow cytometer (Becton-Dickinson).

[5] = tested on: Mycobacterium tuberculosis (Mtb) H37Rv in BMDM; experiment: Infection of BMDM with Mycobacterium tuberculosis H37Rv; type: cell-based
Method: To address this question, BMMDs were infected with Mycobacterium tuberculosis (Mtb) H37Rv strain (MOI of 1). Three treatment groups were set up: untreated macrophages, macrophages pretreated with interferon, and macrophages pretreated with interferon and then treated with itaconate. The infection was then allowed to proceed for 7 days. On day 7 post infection, serial dilutions of infected BMDM homogenates were plated on 7H11 agar plates and colony forming unit (CFU) determined.

[6] = molecular target: T1, succinate dehydrogenase (Sdh) (Mus musculus, UniProt Q8K2B3); experiment: Sdh activity assay (Complex II Enzyme Activity Microplate Assay); type: biochemical; details: Sdh purified from BV2 cells or BMDM
T1 construct: Sdh was purified from BV2 cells (a macrophage cell line) or BMDM; endogenous in cells; host or cells: BV2 cells (macrophage cell line) or mouse BMDM; in-well capture with the Abcam Complex II Enzyme Activity Microplate Assay Kit
T1 sequence (Q8K2B3 43-664): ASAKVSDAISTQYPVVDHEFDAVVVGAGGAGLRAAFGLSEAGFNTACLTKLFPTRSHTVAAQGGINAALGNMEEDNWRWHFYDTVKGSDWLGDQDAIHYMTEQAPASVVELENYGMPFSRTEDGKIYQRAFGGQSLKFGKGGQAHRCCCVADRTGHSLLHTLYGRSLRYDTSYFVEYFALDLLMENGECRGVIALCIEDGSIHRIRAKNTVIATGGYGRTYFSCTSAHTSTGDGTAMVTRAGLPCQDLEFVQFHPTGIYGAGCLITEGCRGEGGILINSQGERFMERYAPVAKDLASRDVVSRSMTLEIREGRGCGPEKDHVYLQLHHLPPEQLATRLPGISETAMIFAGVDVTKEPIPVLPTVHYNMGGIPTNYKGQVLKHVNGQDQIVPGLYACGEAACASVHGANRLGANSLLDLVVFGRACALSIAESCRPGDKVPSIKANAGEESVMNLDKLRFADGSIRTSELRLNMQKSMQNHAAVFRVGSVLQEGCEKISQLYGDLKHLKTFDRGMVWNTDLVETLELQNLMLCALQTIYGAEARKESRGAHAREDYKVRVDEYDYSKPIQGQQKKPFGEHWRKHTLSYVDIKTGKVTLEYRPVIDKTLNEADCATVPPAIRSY
T1 sequence (Q9CQA3 31-282 partner): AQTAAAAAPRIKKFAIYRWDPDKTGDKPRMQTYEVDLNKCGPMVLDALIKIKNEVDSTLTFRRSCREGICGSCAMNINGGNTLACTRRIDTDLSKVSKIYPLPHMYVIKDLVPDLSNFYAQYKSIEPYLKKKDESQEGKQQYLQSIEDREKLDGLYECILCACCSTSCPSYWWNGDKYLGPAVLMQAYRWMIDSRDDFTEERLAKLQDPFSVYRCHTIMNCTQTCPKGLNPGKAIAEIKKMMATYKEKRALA
T1 sequence (Q9CZB0 30-169 partner): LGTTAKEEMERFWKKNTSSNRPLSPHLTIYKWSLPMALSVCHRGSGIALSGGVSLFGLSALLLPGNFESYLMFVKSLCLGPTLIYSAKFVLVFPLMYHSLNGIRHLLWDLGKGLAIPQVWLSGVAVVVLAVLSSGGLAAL
T1 sequence (Q9CXV1 57-159 partner): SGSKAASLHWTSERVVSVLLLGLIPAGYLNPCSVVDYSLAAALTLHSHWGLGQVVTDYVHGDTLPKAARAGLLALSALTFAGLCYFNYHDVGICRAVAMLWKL
Method: The test compounds were diluted in activity buffer and added to the phospholipid mixture 5 min before adding the activity solution. Absorbance was measured at 600 nm.

[7] = tested on: Salmonella infection; experiment: Salmonella infection in vivo; details: treated vs untreated mice; i.v. administration
[8] = tested on: naïve CD4 T cells under Th17 polarizing conditions; experiment: Th17 differentiation of naïve CD4 T cells; type: cell-based, C56BL/6 mice; details: for frequency of IL-17-producing cells (Th17 differentiation): Th17 polarizing conditions; for frequency of IL-17-producing cells (Th17 differentiation) / cytotoxic effect (frequency of live CD4 T cells): flow cytometry; for cytotoxic effect (frequency of live CD4 T cells): day 4 after Th17 polarization
Method: FIG. 25C is a series of plots showing DI inhibits also the secretion of IL-17 (left) and GM-CSF (right) in the supernatant of CD4 T cells. On day 4 cells were collected, washed, and re-stimulated in equal numbers for each condition with anti-CD3 and anti-CD28. After 24 h supernatants were collected and assayed for IL-17 and GM-CSF by ELISA.

[9] = tested on: bone marrow-derived macrophage (BMDM); experiment: Activation of BMDM with LPS or LPS+IFN-γ (cytokines, iNOS, HIF-1α); type: cell-based, mouse
Method: Cells were incubated with FcγR-blocking anti-CD16/32 (clone 93, Biolegend) before staining with antibodies to F4/80 (clone BM8, eBioscience) and CD11b (clone M1/70; BD Pharmingen) together with LIVE/DEAD dye (Invitrogen). […] Cells were acquired on a Canto II flow cytometer (BD Biosciences) and data were analyzed using FlowJo v.9.5.2 software (Tree Star).
as §1, §2

[10] = tested on: AIM2-inflammasome in BMDM; experiment: AIM2-inflammasome activation in BMDM (poly dA:dT transfection); type: cell-based, mouse; details: DI 12 h, 5 h
Method: as §1

[11] = tested on: BMDM infected with S. typhimurium; experiment: In vitro infection of BMDM with Salmonella typhimurium; type: cell-based, mouse
[12] = tested on: anti-CD3-induced inflammation; experiment: Anti-CD3-induced inflammation in mice (serum IL-17); type: in vivo; details: 4 mg or 20 mg DI ip, 48 h after anti-CD3, ELISA
Method: FIG. 26A is a plot showing DI-treatment diminished in vivo systemic IL-17 production. Circulating serum IL-17 levels were determined by ELISA 48 h after anti-CD3-induced inflammation in mice treated or not with the indicated doses of DI. Briefly, mice were received intraperitoneal (ip) injections of 4 mg (n=10) or 20 mg (n=5) DI or vehicle (PBS; shown as 0; n=10) 3 h prior (−3 h) to an anti-CD3 injection (given at 0 h ip) and every 20 h thereafter until mice were analyzed at 48 h.

[13] = tested on: bone-marrow derived macrophages; experiment: Cell viability of bone-marrow derived macrophages; type: cell-based, mouse
Method: Live cells were determined via flow cytometry using a live/dead cell fluorescent dye. Shown are representative data from three independent experiments.
Cells were incubated with FcγR-blocking anti-CD16/32 (clone 93, Biolegend) before staining with antibodies to F4/80 (clone BM8, eBioscience) and CD11b (clone M1/70; BD Pharmingen) together with LIVE/DEAD dye (Invitrogen). Intracellular iNOS was detected with mouse anti-NOS2 (clone C-11, Santa Cruz Biotechnology) followed by incubation with fluorochrome-conjugated anti-mouse IgG (Clone A85-1, BD Pharmingen) using the BD cytofix/cytoperm Kit (BD Biosciences) according to manufacturer's instructions. Cells were acquired on a Canto II flow cytometer (BD Biosciences) and data were analyzed using FlowJo v.9.5.2 software (Tree Star).

[14] = tested on: unstimulated BMDM; experiment: Extracellular flux analysis (Seahorse); type: cell-based, mouse; details: 0.25 mM DI 12 h
Method: Extracellular acidification rate (ECAR) and Oxygen Consumption rate (OCR) were measured in real time using Seahorse technology as described previously.

[15] = tested on: IMQ-induced skin inflammation; experiment: Imiquimod (IMQ)-induced psoriasis model; type: in vivo; details: mouse ear skin, 20 mg DI ip daily, IMQ cream 7 days
Method: IMQ cream (5%) was applied on mouse ear skin for 7 days and skin pathology was assessed on day 8. Mice received 20 mg DI ip. (DI+IMQ) or vehicle ip (PBS; IMQ) was administered one day prior to IMQ application and every day thereafter until day 7. DI group: received 20 mg DI as above but no IMQ; naïve mice received vehicle as above but no IMQ.

[16] = tested on: neonatal rat cardiac myocytes; experiment: Hypoxia modeling in neonatal rat cardiac myocytes; details: NRCMs, hypoxia 24 h, DI pretreatment
Method: Neonatal rat cardiac myocytes were isolated and cultured as described. Cells were subjected to hypoxia in an oxygen control cabinet (Coy Laboratories, Grass Lake, Mich.) mounted within an incubator and equipped with oxygen controller and sensor for continuous oxygen level monitoring. […] Cell death was assessed with the Live-Dead Cytotoxicity Viability kit for Mammalian cells (Invitrogen) and ROS generation was monitored by flow cytometric assessment of carboxy-H2DCFDA fluorescence (following incubation in 10 μmol/L for 30 minutes), as previously described.

[17] = 12 h pretreatment, LPS 100 ng/ml 4 h
[18] = Western blot, LPS 4 h, ATP 45 min
[19] = BMDM pretreated with DI (12 h; 0.25 mM), LPS 24 h
[20] = BMDM pre-treated with 0.25 mM DI 12 h, infected with live S. typhimurium
[21] = Western blot, DI 0.25 mM 12 h, LPS 4 h, ATP 45 min
[22] = day 4 cells re-stimulated with anti-CD3 and anti-CD28, 24 h, ELISA

## COC(=O)CC(=O)OC [dimethyl malonate, reference compound]
[1]; [17]
  production of IL-18: inhibited

## C=C(CC(=O)O)C(=O)O [itaconate, itaconic acid]
[2]; mice
  myocardial infarct size: reduces infarct size
[3]
  pro-inflammatory transcripts / inflammatory markers (Nos2, II6, II12b etc.): significantly decreased
[4]
  LPS-induced upregulation of mROS: impaired
[5]; BMDM pretreated with interferon, Mtb MOI of 1, day 7 post infection
  bacterial burden in the cells (CFU): increased
[5]; Mtb-infected BMDM, data not shown
  II1b levels in the supernatants: decreased
[6]
  activity of purified Sdh: blocked the activity of Sdh in a dose-dependent manner
[7]
  mortality from Salmonella infection: succumb to Salmonella infection faster; also recorded: significantly accelerates mortality
[1]; [18]
  protein expression of pro-IL-1β: significantly decreased
[8]
  frequency of IL-17-producing cells (Th17 differentiation): dose-dependently inhibits
  cytotoxic effect (frequency of live CD4 T cells): not cytotoxic
[8]; all acids at 5 mM, day 3 post polarization
  inhibition of Th17 compared with structurally similar dicarboxylic acids: structure specific

## O=C(O)CC(=O)O [malonate, reference compound]
[2]; mice
  myocardial infarct size: reduces infarct size
[6]
  activity of purified Sdh: blocked the activity of Sdh in a dose-dependent manner

## C=C(CC(=O)OC)C(=O)OC [DI, dimethyl itaconate]
[9]; BMDM pretreated with DI 12 h, then LPS and IFN-γ 24 h
  IL-12p70 secretion: suppressed
[9]; [19]
  IL-6 secretion: suppressed
  TNF-α production: remained unchanged
[9]; BMDM pretreated with DI (12 h; 0.25 mM), then LPS and IFN-γ 24 h, flow cytometry
  iNOS protein expression: suppressed
[2]; DI vs saline group
  area-at-risk: similar
[2]; mice
  myocardial infarct size: markedly reduced
[2]; mice, DI 4 mg/Kg/min i.v. 10 min before and throughout ischemia
  reduction in infarct size: 42%
[3]
  pro-inflammatory transcripts / inflammatory markers (Nos2, II6, II12b etc.): down-regulation
[3]; DI 0.25 mM 12 h, LPS 4 h
  expression of LPS-regulated genes involved in inflammasome function (II1b, II18, P2rx7, Casp1, Pycard): modulated
[4]
  LPS-induced upregulation of mROS: impaired
[10]
  IL-1β production following AIM-2-dependent inflammasome activation: impaired
[11]; [20]
  TNF-α levels: only marginally affected
  production of IL-1β: virtually abrogated
  production of IL-6: virtually abrogated
  production of nitric oxide (NO): virtually abrogated
[11]; DI-treated vs control BMDM, S. typhimurium
  number of intracellular bacteria: comparable
[12]
  in vivo systemic IL-17 production (circulating serum IL-17): diminished
[13]
  concentration up to which not toxic: up to 0.5 mM
[1]; [17]
  production of IL-18: potently inhibited
[1]; 12 h pretreatment, LPS 100 ng/ml 4 h, then ATP, nigericin or MSU
  production of mature IL-1β: potently inhibited
[1]; DI 0.25 mM 12 h, LPS 4 h, ATP 3 mM 45 min, live/dead dye
  inflammasome-induced cytotoxicity: only moderately
[1]; [18]
  protein expression of pro-IL-1β: decreased
[1]; [21]
  protein expression of ASC: decreased
  protein expression of NLRP3: decreased
[8]
  frequency of IL-17-producing cells (Th17 differentiation): dose-dependently inhibits
  cytotoxic effect (frequency of live CD4 T cells): moderate dose-dependent cytotoxic effect
[8]; [22]
  secretion of GM-CSF: inhibits
  secretion of IL-17: inhibits
[14]
  extracellular acidification rate (ECAR): increased
[15]; H&E day 8
  dermal edema: prevents dermal edema
[15]; assessed day 8
  IL-17 associated pathology: limits IL-17 associated pathology
[16]
  hypoxia-induced cell death: dose-dependent protection
  hypoxia-induced increase in ROS generation: attenuated
